Assay results as given in PMC8151276, “An Integrated Approach toward NanoBRET Tracers for Analysis of GPCR Ligand Engagement” (Molecules, 2021).

Biological target: T1, HTR2C (Homo sapiens, UniProt P28335)
T1 construct: purchased Promega (in-house HiBiT-GPCR construct library, NanoBRET)
T1 sequence (P28335 33-458): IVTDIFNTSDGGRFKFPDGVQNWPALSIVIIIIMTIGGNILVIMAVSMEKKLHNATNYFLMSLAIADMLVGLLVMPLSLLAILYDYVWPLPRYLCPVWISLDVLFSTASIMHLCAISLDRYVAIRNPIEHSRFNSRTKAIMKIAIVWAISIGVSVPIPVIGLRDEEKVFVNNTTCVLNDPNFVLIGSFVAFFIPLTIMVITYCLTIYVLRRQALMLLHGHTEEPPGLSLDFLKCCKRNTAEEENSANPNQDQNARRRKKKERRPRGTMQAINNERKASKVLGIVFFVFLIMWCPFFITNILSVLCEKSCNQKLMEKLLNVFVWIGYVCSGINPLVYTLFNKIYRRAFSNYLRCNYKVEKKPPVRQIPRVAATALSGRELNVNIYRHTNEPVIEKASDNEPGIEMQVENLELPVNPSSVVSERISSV
Test: NanoBRET screen HiBiT-HTR2C in HEK293
Format: binding
Description: Each tracer candidate was screened across the entire library of HiBiT-GPCR constructs using NanoBRET as the detection modality. As depicted in Figure 4A, the specificity of interactions was evaluated through decrease in BRET due to competitive displacement of a bound tracer by excess parental compound. Each tracer was analyzed for binding to each HiBiT-GPCR fusion in the absence and in the presence of competing parental compound. Briefly, HEK293 cells were transfected with HiBiT-GPCR constructs diluted into promoterless DNA to reduce expression and maximize translocation to the cell surface. Each tracer candidate was then screened at concentrations of 1 μM and 0.1 μM across cells expressing these fusions. Cells were treated for 1.5 h with tracer either alone or in the presence of 20 μM competing parental compound (i.e., control). BRET was measured upon addition of purified LgBiT and subsequent complementation with HiBiT genetically fused to a GPCR. The specificity of interactions was assessed through a decrease in BRET signal due to competitive displacement of the bound tracer. To further gauge the robustness of these interactions, the fold response over the control (i.e., BRETtracer/BRETcontrol) was calculated. We chose a 1.5-fold response, which translates to ≥7-fold signal over noise as the minimal threshold required to score an interaction as positive.
HiBiT-GPCR DNA constructs were diluted in 10 mM Tris pH 8 to a final concentration of 0.01 μg/μL, arrayed in 96-well plates and stored at −20 °C. For transfection, HEK293 cells were suspended in Opti-MEM (without phenol red) supplemented with 2% fetal bovine serum (Seradigm) and 100 units/mL penicillin–streptomycin (Gibco) at a final concentration of 220,000 cells/mL and dispensed into white 96-well plates at 90 μL/well. Subsequent transfections and screens were carried using an Agilent Bravo Automated Liquid Handling Platform. First, the 96-well HiBiT DNA arrays were diluted 25-fold in Opti-MEM (without serum or phenol red) to a final concentration of 0.0004 μg/μL and 20 μL of the diluted DNAs were transferred into new 96-well plates. Next, promoterless carrier DNA (1 μg/μL) was diluted 25-fold (0.04 μg/μL) and then dispensed into the diluted arrays at 20 μL/well. Following brief mixing, Viafect transfection reagent (Promega) diluted 16-fold into Opti-MEM was dispensed into the plates at 40 μL/well. After mixing by pipetting, plates were incubated for 10 min on the pipetting station deck. The DNA-transfection reagent complexes were then added to plates containing cells. To facilitate the screen, 10 μL of DNA-transfection reagent complexes were added in duplicates to the top 4 and bottom 4 rows, resulting in two identical 48-well arrays per plate. Plates with transfected cells were incubated for 18–20 h at 37 °C/5% CO2. A screen of each tracer across the entire library using two different concentrations requires duplicate plates of transfected cells. Depending on the number of tracers being screened, transfections can be scaled up using the same ratios. The next day, for each tracer, four 20× screening solutions in tracer dilution buffer (Promega) were prepared: two duplicates at final concentration of 20 μM and two duplicates at a final concentration of 2 μM. […] The four resulting solutions were diluted 4-fold in Opti-MEM without serum or phenol red to generate 5× solutions (5 µM and 0.5 µM tracer +/− 100 μM competing compound). To screen the library, a BioTek MultiFlo FX liquid dispenser was used to dispense 22.5 µL of tracer solution to the top 4 rows and 22.5 µL tracer + competing compound solution to the 4 bottom rows. Plates were briefly mixed on an orbital shaker and incubated for 1.5 h at room temperature. […] Plates were briefly mixed on an orbital shaker and incubated for 15 min to allow complementation.

SMILES	NanoBRET Fold Response (HTR2C, tracer 0.1μM)	NanoBRET Fold Response (HTR2C, tracer 1μM)	other results
Cc1nc2n(c(=O)c1CCN1CCC(c3noc4cc(F)ccc34)CC1)CCCC2OC(=O)NCCOCCOCCOCCOCCNC(=O)CCc1ccc2n1[B-](F)(F)[N+]1=C(c3ccc[nH]3)C=CC1=C2 (centres unmarked) [Risperidone-2-NB590]	1.26	2.15	–
CCOC(=O)c1cc(C#N)c(N2CCC(C(=O)NS(=O)(=O)Cc3ccccc3/C=C/C(=O)NCCNC(=O)CCc3ccc4n3[B-](F)(F)[N+]3=C(c5ccc[nH]5)C=CC3=C4)CC2)nc1C [AZD1283-1-NB590]	–	–	NanoBRET Fold Response (HTR2C, 0.1μM): 0.95; NanoBRET Fold Response (HTR2C, 1μM): 1.04
Cc1cc2c(s1)Nc1ccccc1N=C2N1CCN(CCCNC(=O)CCOCCOCCOCCOCCNC(=O)CCc2ccc3n2[B-](F)(F)[N+]2=C(c4ccc[nH]4)C=CC2=C3)CC1 [Olanzapine-a-2-NB590]	1.54	1.22	–
COc1ccccc1N1CCN(CCCCN2C(=O)c3ccc(CNC(=O)CCOCCNC(=O)c4ccc(CNC(=O)CCc5ccc6n5[B-](F)(F)[N+]5=C(c7ccc[nH]7)C=CC5=C6)cc4)cc3C2=O)CC1 [NAN-190-3-NB590]	1.04	1.06	–
CC(C)N(CC[C@H](c1ccccc1)c1cc(CCNC(=O)CCOCCOCCOCCOCCNC(=O)CCc2ccc3n2[B-](F)(F)[N+]2=C(c4ccc[nH]4)C=CC2=C3)ccc1O)C(C)C [Tolterodine-2-NB590]	1.09	1.01	–
CN(C)CCC=C1c2ccccc2CCc2ccc(C(=O)NCCNC(=O)CCOCCOCCOCCOCCNC(=O)CCc3ccc4n3[B-](F)(F)[N+]3=C(c5ccc[nH]5)C=CC3=C4)cc21 [Amitriptyline-b-2-NB590]	–	–	NanoBRET Fold Response (tracer at 0.1μM, listed as amitriptyline-b-2-NB590): 1.74; NanoBRET Fold Response (tracer at 1μM, listed as amitriptyline-b-2-NB590): 2.18
O=C(CCOCCOCCOCCOCCNC(=O)CCc1ccc2n1[B-](F)(F)[N+]1=C(c3ccc[nH]3)C=CC1=C2)NCCCN1CCN(C2=Nc3ccccc3Oc3ccc(Cl)cc32)CC1 [Loxapine-a-2-NB590]	1.60	1.62	–
CN(C)CCC=C1c2ccccc2CCc2ccc(C(=O)NCCNC(=O)CCOCCOCCOCCOCCNC(=O)CCc3ccc4n3[B-](F)(F)[N+]3=C(c5ccc[nH]5)C=CC3=C4)cc21 [Amitriptyline-a-2-NB590]	–	–	NanoBRET Fold Response (tracer at 1μM): 1.80
O=C(CCc1ccc2n1[B-](F)(F)[N+]1=C(c3ccc[nH]3)C=CC1=C2)NCCOCCOCCNC(=O)OCCOCCN1CCN(C2=Nc3ccccc3Sc3ccccc32)CC1 [Quetiapine-a-2-NB590]	0.99	1.17	–
COc1ccccc1N1CCN(CCCCN2C(=O)c3ccc(CNC(=O)CCOCCOCCOCCOCCNC(=O)CCc4ccc5n4[B-](F)(F)[N+]4=C(c6ccc[nH]6)C=CC4=C5)cc3C2=O)CC1 [NAN-190-2-NB590]	1.00	1.14	–
N#CN/C(=N\CCNC(=O)c1ccc(N)cc1)NCCCOc1cccc(CN2CCCCC2)c1 [Aminopotentidine (unmodified)]	–	–	NanoBRET Fold Response (HTR2C, other tracers/Aminopotentidine (unmodified), 0.1μM): 1.48; NanoBRET Fold Response (HTR2C, other tracers/Aminopotentidine (unmodified), 1μM): 1.66
COc1ccc2[nH]c(-c3ccc(CNC(=O)CCOCCOCCOCCOCCNC(=O)CCc4ccc5n4[B-](F)(F)[N+]4=C(c6ccc[nH]6)C=CC4=C5)cc3)c(CCNC(C)=O)c2n1 [AzomelatoninICO9-2-NB590]	–	–	NanoBRET Fold Response (0.1μM tracer): 1.02; NanoBRET Fold Response (1μM tracer): 1.10
O=C(CCOCCOCCOCCOCCNC(=O)CCc1ccc2n1[B-](F)(F)[N+]1=C(c3ccc[nH]3)C=CC1=C2)NCCCN1CCN(C2=Nc3cc(Cl)ccc3Nc3ccccc32)CC1 [Clozapine-a-2-NB590]	–	–	NanoBRET Fold Response (HTR2C, 0.1μM tracer): 1.89; NanoBRET Fold Response (HTR2C, 1μM tracer): 3.22
CCCn1c(=O)c2[nH]c(-c3ccc(OCC(=O)NCCNC(=O)CCOCCNC(=O)c4ccc(CNC(=O)CCc5ccc6n5[B-](F)(F)[N+]5=C(c7ccc[nH]7)C=CC5=C6)cc4)cc3)nc2n(CCC)c1=O [XAC-3-NB590]	1.45	0.88	–
O=C(CCc1ccc2n1[B-](F)(F)[N+]1=C(c3ccc[nH]3)C=CC1=C2)NCc1ccc(C(=O)NCCOCCOCCNCC(O)COc2cccc3ccccc23)cc1 (centres unmarked) [Propranolol-3-NB590]	–	–	NanoBRET Fold Response (HTR2C, 0.1μM): 1.22; NanoBRET Fold Response (HTR2C, 1μM): 1.21
O=C(CCc1ccc2n1[B-](F)(F)[N+]1=C(c3ccc[nH]3)C=CC1=C2)NCc1ccc(C(=O)NCCOCCC(=O)N[C@@H]2CC[C@@]3(O)[C@H]4Cc5ccc(O)c6c5[C@@]3(CCN4CC3CC3)[C@H]2O6)cc1 [Naltrexone-3-NB590]	0.79	1.03	–
CN(CCC=C1c2ccccc2CCc2ccccc21)C(=O)CCOCCOCCOCCOCCNC(=O)CCc1ccc2n1[B-](F)(F)[N+]1=C(c3ccc[nH]3)C=CC1=C2 [Amitriptyline-e-2-NB590]	–	–	NanoBRET Fold Response (tracer at 1μM): 1.03
N#CN=C(NCCCOc1cccc(CN2CCCCC2)c1)NCCNC(=O)CCOCCOCCOCCOCCNC(=O)CCc1ccc2n1[B-](F)(F)[N+]1=C(c3ccc[nH]3)C=CC1=C2 [Aminopotentidine-2-NB590]	1.01	1.04	–
COc1ccc2c(n1)c(CCNC(C)=O)cn2CCNC(=O)CCc1ccc2n1[B-](F)(F)[N+]1=C(c3ccc[nH]3)C=CC1=C2 [Azamelatonin-1-NB590]	–	–	NanoBRET Fold Response (0.1μM tracer): 0.91; NanoBRET Fold Response (1μM tracer): 0.91
CC(C)N(CC[C@H](c1ccccc1)c1cc(CCNC(=O)c2ccc(CNC(=O)CCc3ccc4n3[B-](F)(F)[N+]3=C(c5ccc[nH]5)C=CC3=C4)cc2)ccc1O)C(C)C [Tolterodine-BZ-NB590]	0.86	1.55	–
